Assay results published in the kinase profiling compilation of Christmann-Franck et al. (2016).

Columns and labels:
Experiment in all cases: radiometric filter-binding kinase assay
BRSK1 (human) = BRSK1 (human) (UniProt Q8TDC3)
BRSK2 (human) = BRSK2 (human) (UniProt Q8IWQ3)
CAMKK2 (human) = CAMKK2 (human) (UniProt Q96RR4)
DAPK1 (human) = DAPK1 (human) (UniProt P53355)
DYRK1A (human) = DYRK1A (human) (UniProt Q13627)
EEF2K (human) = EEF2K (human) (UniProt O00418)
EPHB4 (human) = EPHB4 (human) (UniProt P54760)
ERBB4 (human) = ERBB4 (human) (UniProt Q15303)
FGFR1 (human) = FGFR1 (human) (UniProt P11362)
GSK3B (human) = GSK3B (human) (UniProt P49841)
HIPK3 (human) = HIPK3 (human) (UniProt Q9H422)
IGF1R (human) = IGF1R (human) (UniProt P08069)
IKBKE (human) = IKBKE (human) (UniProt Q14164)
MAP2K2 (human) = MAP2K2 (human) (UniProt P36507); conditions: compound 0.1 µM
MAP2K6 (human) = MAP2K6 (human) (UniProt P52564)
MAP3K5 (human) = MAP3K5 (human) (UniProt Q99683)
MAPK12 (human) = MAPK12 (human) (UniProt P53778)
MAPK13 (human) = MAPK13 (human) (UniProt O15264)
MAPK3 (human) = MAPK3 (human) (UniProt P27361)
MAPK9 (human) = MAPK9 (human) (UniProt P45984)
MAPKAPK2 (human) = MAPKAPK2 (human) (UniProt P49137)
MAPKAPK5 (human) = MAPKAPK5 (human) (UniProt Q8IW41)
MARK1 (human) = MARK1 (human) (UniProt Q9P0L2)
MELK (human) = MELK (human) (UniProt Q14680)
MKNK1 (human) = MKNK1 (human) (UniProt Q9BUB5)
PAK7 (human) = PAK7 (human) (UniProt Q9P286)
PHKG1 (human) = PHKG1 (human) (UniProt Q16816)
PIM1 (human) = PIM1 (human) (UniProt P11309)
PIM2 (human) = PIM2 (human) (UniProt Q9P1W9)
PIM3 (human) = PIM3 (human) (UniProt Q86V86)
PRKAA1 or PRKAA2 (rat) = conditions: accession and sequence are those of the human protein
PRKACA (human) = PRKACA (human) (UniProt P17612)
PRKCZ (human) = PRKCZ (human) (UniProt Q05513)
[1] = tested on: SGK1 (human), O00141 [S422D]
STK3 (human) = STK3 (human) (UniProt Q13188)
SYK (human) = SYK (human) (UniProt P43405)

Chain of STK3 (human) (Q13188 whole entry, looked up): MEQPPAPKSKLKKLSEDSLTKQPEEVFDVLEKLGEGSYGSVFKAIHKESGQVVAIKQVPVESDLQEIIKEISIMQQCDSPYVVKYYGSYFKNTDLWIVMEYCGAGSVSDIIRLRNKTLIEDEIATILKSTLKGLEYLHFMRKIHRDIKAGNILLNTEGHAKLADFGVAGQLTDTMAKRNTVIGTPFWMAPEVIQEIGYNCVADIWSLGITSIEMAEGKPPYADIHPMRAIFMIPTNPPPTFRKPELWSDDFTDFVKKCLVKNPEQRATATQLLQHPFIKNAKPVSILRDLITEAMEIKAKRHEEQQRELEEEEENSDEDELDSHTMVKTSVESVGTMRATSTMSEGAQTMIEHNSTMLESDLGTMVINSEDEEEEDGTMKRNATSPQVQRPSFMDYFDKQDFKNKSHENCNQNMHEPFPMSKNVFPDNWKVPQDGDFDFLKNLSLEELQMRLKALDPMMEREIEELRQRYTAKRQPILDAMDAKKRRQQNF
Chain of BRSK2 (human) (Q8IWQ3 whole entry, looked up): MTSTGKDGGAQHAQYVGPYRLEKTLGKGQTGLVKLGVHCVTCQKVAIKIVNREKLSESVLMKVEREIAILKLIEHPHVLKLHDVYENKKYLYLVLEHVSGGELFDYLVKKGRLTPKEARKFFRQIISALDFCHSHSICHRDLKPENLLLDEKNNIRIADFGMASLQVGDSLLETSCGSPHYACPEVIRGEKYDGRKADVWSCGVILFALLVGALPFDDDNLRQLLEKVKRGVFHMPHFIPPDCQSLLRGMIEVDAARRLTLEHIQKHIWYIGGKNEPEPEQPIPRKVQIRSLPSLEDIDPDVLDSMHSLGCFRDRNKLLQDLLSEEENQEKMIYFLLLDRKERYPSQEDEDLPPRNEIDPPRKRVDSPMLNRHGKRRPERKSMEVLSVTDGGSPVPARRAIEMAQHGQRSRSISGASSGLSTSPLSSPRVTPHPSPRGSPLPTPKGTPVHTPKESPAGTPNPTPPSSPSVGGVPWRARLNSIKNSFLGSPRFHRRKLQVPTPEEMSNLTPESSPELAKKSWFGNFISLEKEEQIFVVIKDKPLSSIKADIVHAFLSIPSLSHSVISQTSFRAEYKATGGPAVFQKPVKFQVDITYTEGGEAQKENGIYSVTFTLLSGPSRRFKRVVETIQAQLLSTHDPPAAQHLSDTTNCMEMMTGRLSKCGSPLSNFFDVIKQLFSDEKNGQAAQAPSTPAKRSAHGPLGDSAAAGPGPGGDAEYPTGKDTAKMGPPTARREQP
Chain of HIPK3 (human) (Q9H422 whole entry, looked up): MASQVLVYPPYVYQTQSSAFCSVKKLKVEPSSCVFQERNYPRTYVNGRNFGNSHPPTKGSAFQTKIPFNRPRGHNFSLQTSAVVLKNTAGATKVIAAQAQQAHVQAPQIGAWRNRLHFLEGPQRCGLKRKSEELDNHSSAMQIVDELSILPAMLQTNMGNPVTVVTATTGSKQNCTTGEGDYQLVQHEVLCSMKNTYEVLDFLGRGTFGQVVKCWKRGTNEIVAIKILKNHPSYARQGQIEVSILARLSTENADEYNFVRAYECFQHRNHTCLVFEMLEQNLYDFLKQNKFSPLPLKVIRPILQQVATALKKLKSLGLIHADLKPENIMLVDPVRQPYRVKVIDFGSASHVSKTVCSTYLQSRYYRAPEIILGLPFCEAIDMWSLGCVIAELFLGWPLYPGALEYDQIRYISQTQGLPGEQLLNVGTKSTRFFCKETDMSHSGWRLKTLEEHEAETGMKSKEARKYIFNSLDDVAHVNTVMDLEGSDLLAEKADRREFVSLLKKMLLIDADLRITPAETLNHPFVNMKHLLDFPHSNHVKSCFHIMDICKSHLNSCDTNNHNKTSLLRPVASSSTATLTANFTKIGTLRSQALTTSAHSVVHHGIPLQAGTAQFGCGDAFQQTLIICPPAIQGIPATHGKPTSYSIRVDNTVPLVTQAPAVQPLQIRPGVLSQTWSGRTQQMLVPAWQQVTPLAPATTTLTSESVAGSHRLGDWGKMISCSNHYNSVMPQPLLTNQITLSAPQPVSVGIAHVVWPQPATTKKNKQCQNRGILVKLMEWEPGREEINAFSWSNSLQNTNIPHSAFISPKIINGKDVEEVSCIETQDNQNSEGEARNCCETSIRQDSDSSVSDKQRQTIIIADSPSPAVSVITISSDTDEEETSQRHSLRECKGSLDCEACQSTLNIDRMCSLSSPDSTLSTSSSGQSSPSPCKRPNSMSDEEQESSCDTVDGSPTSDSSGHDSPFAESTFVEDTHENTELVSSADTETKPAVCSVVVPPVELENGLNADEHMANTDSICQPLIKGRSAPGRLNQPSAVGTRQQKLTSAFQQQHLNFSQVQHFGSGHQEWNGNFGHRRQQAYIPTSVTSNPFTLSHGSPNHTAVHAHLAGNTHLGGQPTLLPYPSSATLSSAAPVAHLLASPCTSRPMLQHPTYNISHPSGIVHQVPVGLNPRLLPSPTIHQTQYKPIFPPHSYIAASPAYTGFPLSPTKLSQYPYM
Chain of IGF1R (human) (P08069 whole entry, looked up): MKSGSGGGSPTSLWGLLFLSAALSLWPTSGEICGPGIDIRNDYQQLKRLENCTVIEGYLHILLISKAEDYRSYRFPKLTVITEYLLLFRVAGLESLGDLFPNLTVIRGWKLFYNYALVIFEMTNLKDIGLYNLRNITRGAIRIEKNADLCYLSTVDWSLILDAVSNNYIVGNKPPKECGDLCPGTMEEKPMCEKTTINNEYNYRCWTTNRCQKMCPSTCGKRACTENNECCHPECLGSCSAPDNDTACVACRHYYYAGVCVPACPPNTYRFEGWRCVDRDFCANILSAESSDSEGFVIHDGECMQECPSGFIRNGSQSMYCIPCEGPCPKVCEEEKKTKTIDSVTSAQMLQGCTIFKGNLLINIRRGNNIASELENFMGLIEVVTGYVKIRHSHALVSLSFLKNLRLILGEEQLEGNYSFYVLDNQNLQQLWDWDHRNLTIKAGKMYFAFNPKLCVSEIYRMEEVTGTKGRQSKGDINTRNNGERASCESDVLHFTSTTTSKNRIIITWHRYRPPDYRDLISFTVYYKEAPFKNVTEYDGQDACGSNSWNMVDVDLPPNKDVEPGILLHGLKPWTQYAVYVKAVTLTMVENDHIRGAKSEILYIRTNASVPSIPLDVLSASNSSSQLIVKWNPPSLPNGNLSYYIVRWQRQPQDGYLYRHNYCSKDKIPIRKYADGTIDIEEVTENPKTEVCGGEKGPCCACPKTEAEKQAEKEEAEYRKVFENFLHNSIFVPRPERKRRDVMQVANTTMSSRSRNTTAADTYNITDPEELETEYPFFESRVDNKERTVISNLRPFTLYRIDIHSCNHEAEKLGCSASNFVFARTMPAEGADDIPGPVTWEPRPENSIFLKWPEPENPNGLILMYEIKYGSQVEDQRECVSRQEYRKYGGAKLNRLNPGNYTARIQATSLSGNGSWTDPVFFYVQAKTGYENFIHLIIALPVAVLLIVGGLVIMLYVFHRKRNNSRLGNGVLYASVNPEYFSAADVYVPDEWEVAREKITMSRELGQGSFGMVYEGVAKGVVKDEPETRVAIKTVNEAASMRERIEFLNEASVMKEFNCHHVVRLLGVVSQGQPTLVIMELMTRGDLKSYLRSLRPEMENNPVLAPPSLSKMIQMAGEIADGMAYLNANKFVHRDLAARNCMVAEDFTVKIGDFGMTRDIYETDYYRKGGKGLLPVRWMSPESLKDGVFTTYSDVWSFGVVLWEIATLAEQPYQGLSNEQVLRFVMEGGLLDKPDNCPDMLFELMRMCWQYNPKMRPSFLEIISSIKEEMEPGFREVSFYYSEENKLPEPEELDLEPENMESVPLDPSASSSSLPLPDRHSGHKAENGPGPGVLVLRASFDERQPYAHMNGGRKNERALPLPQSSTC
Chain of PHKG1 (human) (Q16816 whole entry, looked up): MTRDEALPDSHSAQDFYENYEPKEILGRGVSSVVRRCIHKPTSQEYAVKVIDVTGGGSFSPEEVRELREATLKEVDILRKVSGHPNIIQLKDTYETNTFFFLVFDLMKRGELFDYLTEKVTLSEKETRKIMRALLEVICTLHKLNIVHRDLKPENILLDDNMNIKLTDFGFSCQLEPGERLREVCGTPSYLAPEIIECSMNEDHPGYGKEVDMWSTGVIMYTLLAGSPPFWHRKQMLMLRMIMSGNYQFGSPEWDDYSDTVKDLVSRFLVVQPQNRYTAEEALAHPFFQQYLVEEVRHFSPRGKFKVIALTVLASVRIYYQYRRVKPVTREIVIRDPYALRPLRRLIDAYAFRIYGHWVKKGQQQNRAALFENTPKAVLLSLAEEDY
Chain of MAPKAPK5 (human) (Q8IW41 whole entry, looked up): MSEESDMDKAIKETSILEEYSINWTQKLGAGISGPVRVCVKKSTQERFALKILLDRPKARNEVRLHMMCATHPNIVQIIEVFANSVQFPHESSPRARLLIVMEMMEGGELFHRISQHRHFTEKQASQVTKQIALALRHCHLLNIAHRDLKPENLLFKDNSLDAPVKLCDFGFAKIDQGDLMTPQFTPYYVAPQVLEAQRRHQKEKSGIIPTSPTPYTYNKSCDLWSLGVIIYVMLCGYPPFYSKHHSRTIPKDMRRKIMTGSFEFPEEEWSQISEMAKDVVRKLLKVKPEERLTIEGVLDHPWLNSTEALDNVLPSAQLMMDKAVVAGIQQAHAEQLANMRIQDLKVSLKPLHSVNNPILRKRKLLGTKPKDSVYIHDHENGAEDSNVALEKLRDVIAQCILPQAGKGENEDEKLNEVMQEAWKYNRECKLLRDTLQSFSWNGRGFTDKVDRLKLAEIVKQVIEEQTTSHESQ
Chain of MAPK3 (human) (P27361 whole entry, looked up): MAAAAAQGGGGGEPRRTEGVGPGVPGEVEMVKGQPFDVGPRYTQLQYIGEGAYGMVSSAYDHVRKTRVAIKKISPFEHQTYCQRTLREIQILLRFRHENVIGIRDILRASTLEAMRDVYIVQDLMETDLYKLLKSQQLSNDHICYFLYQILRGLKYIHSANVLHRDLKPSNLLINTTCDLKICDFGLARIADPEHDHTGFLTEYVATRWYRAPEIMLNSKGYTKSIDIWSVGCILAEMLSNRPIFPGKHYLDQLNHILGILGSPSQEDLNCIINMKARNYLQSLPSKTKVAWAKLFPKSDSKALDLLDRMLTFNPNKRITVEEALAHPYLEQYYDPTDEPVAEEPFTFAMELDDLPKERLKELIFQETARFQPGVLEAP

residual activity (BRSK1 (human); compound 0.1 µM): 91% | residual activity (BRSK1 (human); compound 1.0 µM): 81% | residual activity (BRSK1 (human); compound 10.0 µM): 41% | residual activity (BRSK2 (human); compound 0.1 µM): 96% | residual activity (BRSK2 (human); compound 1.0 µM): 89% | residual activity (BRSK2 (human); compound 10.0 µM): 41% | residual activity (CAMKK2 (human); compound 1.0 µM): 128% | residual activity (CAMKK2 (human); compound 10.0 µM): 105% | residual activity (DAPK1 (human); compound 0.1 µM): 111% | residual activity (DAPK1 (human); compound 1.0 µM): 84% | residual activity (DAPK1 (human); compound 10.0 µM): 35% | residual activity (DYRK1A (human); compound 0.1 µM): 92% | residual activity (DYRK1A (human); compound 1.0 µM): 73% | residual activity (DYRK1A (human); compound 10.0 µM): 35% | residual activity (EEF2K (human); compound 0.1 µM): 118% | residual activity (EEF2K (human); compound 10.0 µM): 117% | residual activity (EPHB4 (human); compound 0.1 µM): 105% | residual activity (EPHB4 (human); compound 1.0 µM): 105% | residual activity (EPHB4 (human); compound 10.0 µM): 94% | residual activity (ERBB4 (human); compound 0.1 µM): 112% | residual activity (ERBB4 (human); compound 1.0 µM): 104% | residual activity (FGFR1 (human); compound 0.1 µM): 101% | residual activity (FGFR1 (human); compound 1.0 µM): 115% | residual activity (FGFR1 (human); compound 10.0 µM): 121% | residual activity (GSK3B (human); compound 0.1 µM): 87% | residual activity (GSK3B (human); compound 1.0 µM): 66% | residual activity (GSK3B (human); compound 10.0 µM): 25% | residual activity (HIPK3 (human); compound 0.1 µM): 99% | residual activity (HIPK3 (human); compound 1.0 µM): 95% | residual activity (HIPK3 (human); compound 10.0 µM): 84% | residual activity (IGF1R (human); compound 0.1 µM): 96% | residual activity (IGF1R (human); compound 1.0 µM): 107% | residual activity (IGF1R (human); compound 10.0 µM): 105% | residual activity (IKBKE (human); compound 0.1 µM): 111% | residual activity (IKBKE (human); compound 1.0 µM): 110% | residual activity (IKBKE (human); compound 10.0 µM): 115% | residual activity (MAP2K2 (human)): 98% | residual activity (MAP2K6 (human); compound 0.1 µM): 89% | residual activity (MAP2K6 (human); compound 1.0 µM): 90% | residual activity (MAP2K6 (human); compound 10.0 µM): 96% | residual activity (MAP3K5 (human); compound 0.1 µM): 100% | residual activity (MAP3K5 (human); compound 1.0 µM): 97% | residual activity (MAP3K5 (human); compound 10.0 µM): 97% | residual activity (MAPK12 (human); compound 0.1 µM): 119% | residual activity (MAPK12 (human); compound 1.0 µM): 112% | residual activity (MAPK12 (human); compound 10.0 µM): 109% | residual activity (MAPK13 (human); compound 0.1 µM): 100% | residual activity (MAPK13 (human); compound 1.0 µM): 99% | residual activity (MAPK13 (human); compound 10.0 µM): 88% | residual activity (MAPK3 (human); compound 0.1 µM): 95% | residual activity (MAPK3 (human); compound 1.0 µM): 98% | residual activity (MAPK3 (human); compound 10.0 µM): 97% | residual activity (MAPK9 (human); compound 0.1 µM): 109% | residual activity (MAPK9 (human); compound 1.0 µM): 103% | residual activity (MAPK9 (human); compound 10.0 µM): 95% | residual activity (MAPKAPK2 (human); compound 0.1 µM): 112% | residual activity (MAPKAPK2 (human); compound 1.0 µM): 104% | residual activity (MAPKAPK2 (human); compound 10.0 µM): 102% | residual activity (MAPKAPK5 (human); compound 0.1 µM): 94% | residual activity (MAPKAPK5 (human); compound 1.0 µM): 95% | residual activity (MAPKAPK5 (human); compound 10.0 µM): 96% | residual activity (MARK1 (human); compound 0.1 µM): 85% | residual activity (MARK1 (human); compound 1.0 µM): 95% | residual activity (MARK1 (human); compound 10.0 µM): 71% | residual activity (MELK (human); compound 0.1 µM): 71% | residual activity (MELK (human); compound 1.0 µM): 40% | residual activity (MELK (human); compound 10.0 µM): 26% | residual activity (MKNK1 (human); compound 0.1 µM): 91% | residual activity (MKNK1 (human); compound 1.0 µM): 100% | residual activity (MKNK1 (human); compound 10.0 µM): 90% | residual activity (PAK7 (human); compound 0.1 µM): 93% | residual activity (PAK7 (human); compound 1.0 µM): 100% | residual activity (PAK7 (human); compound 10.0 µM): 98% | residual activity (PHKG1 (human); compound 0.1 µM): 101% | residual activity (PHKG1 (human); compound 1.0 µM): 101% | residual activity (PHKG1 (human); compound 10.0 µM): 75% | residual activity (PIM1 (human); compound 0.1 µM): 94% | residual activity (PIM1 (human); compound 1.0 µM): 35% | residual activity (PIM1 (human); compound 10.0 µM): 7% | residual activity (PIM2 (human); compound 1.0 µM): 110% | residual activity (PIM2 (human); compound 10.0 µM): 69% | residual activity (PIM3 (human); compound 0.1 µM): 76% | residual activity (PIM3 (human); compound 1.0 µM): 36% | residual activity (PIM3 (human); compound 10.0 µM): 13% | residual activity (PRKAA1 or PRKAA2 (rat); compound 0.1 µM): 95% | residual activity (PRKAA1 or PRKAA2 (rat); compound 1.0 µM): 82% | residual activity (PRKAA1 or PRKAA2 (rat); compound 10.0 µM): 29% | residual activity (PRKACA (human); compound 0.1 µM): 79% | residual activity (PRKACA (human); compound 1.0 µM): 33% | residual activity (PRKACA (human); compound 10.0 µM): 8% | residual activity (PRKCZ (human); compound 0.1 µM): 94% | residual activity (PRKCZ (human); compound 1.0 µM): 71% | residual activity (PRKCZ (human); compound 10.0 µM): 25% | residual activity ([1]; compound 0.1 µM): 82% | residual activity ([1]; compound 1.0 µM): 55% | residual activity ([1]; compound 10.0 µM): 25% | residual activity (STK3 (human); compound 0.1 µM): 106% | residual activity (STK3 (human); compound 1.0 µM): 97% | residual activity (STK3 (human); compound 10.0 µM): 71% | residual activity (SYK (human); compound 0.1 µM): 106% | residual activity (SYK (human); compound 1.0 µM): 101% | residual activity (SYK (human); compound 10.0 µM): 79%
Compound: CCn1c(-c2nonc2N)nc2cncc(CNC3CCNCC3)c21
